Reference: the supplement of paper PMC10307832

Tests used:
Assay in all cases: relative viability (nuclei count vs DMSO), 5 days (fraction); higher = more cells survive
[1] = compound: CCC1=CN=CN=C1N2CCN(CC2)CC3=NC4=C(N3)C=C(C=C4)C(F)(F)F + CC(=O)Nc1cccc(-n2c(=O)n(C3CC3)c(=O)c3c(Nc4ccc(I)cc4F)n(C)c(=O)c(C)c32)c1 [Trametinib] (partner 0.02 µM)
How it was run: (§1)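 For relative viability, nuclei counts in treated wells were divided by those in vehicle wells. Lung cancer cell lines had been pin-tool dosed in 1536-well plates the day after seeding and cultured for 5 days, then fixed and stained in one step (final 0.05% Triton X-100, 1% formaldehyde, 1 ug/ml Hoechst) and imaged at 4×. Doses were one drug alone or a fixed anchor-drug dose plus five library-drug doses (not always all listed) in √10 steps, and values are duplicate-plate medians.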

[2] = compound: CCC1=CN=CN=C1N2CCN(CC2)CC3=NC4=C(N3)C=C(C=C4)C(F)(F)F + Nc1nc2[nH]cc(CCc3ccc(C(=O)N[C@@H](CCC(=O)O)C(=O)O)cc3)c2c(=O)[nH]1 [Pemetrexed] (partner 0.2 µM)
How it was run: as §1

[3] = compound: CCn1c(-c2nonc2N)nc2cnc(Oc3cccc(NC(=O)c4ccc(OCCN5CCOCC5)cc4)c3)cc21 + CCNC(=O)c1noc(-c2cc(C(C)C)c(O)cc2O)c1-c1ccc(CN2CCOCC2)cc1 [Luminespib] (partner 0.01 µM)
How it was run: as §1

[4] = compound: CCn1c(-c2nonc2N)nc2cnc(Oc3cccc(NC(=O)c4ccc(OCCN5CCOCC5)cc4)c3)cc21 + NC(=O)Nc1cc(-c2cccc(F)c2)sc1C(=O)N[C@H]1CCCNC1 [AZD7762] (partner 0.2 µM)
How it was run: as §1

Cell Line | relative viability ([1]; first compound 0.04 µM) | relative viability ([1]; first compound 0.1265 µM) | relative viability ([1]; first compound 0.4 µM) | relative viability ([1]; first compound 1.265 µM) | relative viability ([1]; first compound 4 µM) | relative viability ([2]; first compound 0.04 µM) | relative viability ([2]; first compound 0.1265 µM) | relative viability ([2]; first compound 0.4 µM) | relative viability ([2]; first compound 1.265 µM) | relative viability ([2]; first compound 4 µM) | relative viability ([3]; first compound 0.04 µM) | relative viability ([3]; first compound 0.1265 µM) | relative viability ([3]; first compound 0.4 µM) | relative viability ([3]; first compound 1.265 µM) | relative viability ([3]; first compound 4 µM) | relative viability ([4]; first compound 0.04 µM) | relative viability ([4]; first compound 0.1265 µM) | relative viability ([4]; first compound 0.4 µM) | relative viability ([4]; first compound 1.265 µM) | relative viability ([4]; first compound 4 µM)
NCI-H522 | 0.797 | 0.848 | 0.761 | 0.692 | 0.795 | 0.855 | 1.2 | 0.892 | 0.876 | 0.958 | 1.04 | 1.27 | 0.853 | 0.797 | 0.767 | 0.697 | 0.821 | 0.549 | 0.689 | 0.474
EMC-BAC-2 |  | 0.857 | 0.841 | 0.891 | 0.951 | 0.436 | 0.43 | 0.455 | 0.418 | 0.469 | 1.13 | 1.16 | 1.1 | 0.863 | 0.662 | 1.17 | 1.01 | 0.504 | 0.476 | 0.32
NCI-H1355 | 0.435 | 0.395 | 0.426 | 0.331 | 0.451 | 1.07 | 0.928 | 0.996 | 0.996 | 1.08 | 0.744 | 0.742 | 0.672 | 0.759 | 0.797 | 0.676 | 0.684 | 0.369 | 0.313 | 0.217
NCI-H2347 | 0.295 | 0.333 | 0.313 | 0.249 | 0.293 | 0.422 | 0.408 | 0.434 | 0.373 | 0.442 | 0.399 | 0.451 | 0.599 | 0.283 | 0.302 | 0.951 | 0.766 | 0.641 | 0.378 | 0.413
NCI-H1651 | 0.884 | 0.855 | 0.846 | 0.791 | 0.797 | 0.616 | 0.627 | 0.684 | 0.59 | 0.728 | 0.843 | 1.14 | 0.71 | 0.689 | 0.491 | 0.566 | 0.477 | 0.373 | 0.146 | 0.282
NCI-H1975 | 0.36 | 0.342 | 0.319 | 0.309 | 0.422 | 0.318 | 0.295 | 0.298 | 0.298 | 0.276 | 0.229 | 0.136 | 0.199 | 0.139 | 0.125 | 0.597 | 0.471 | 0.374 | 0.201 | 0.214
HCC-44 | 1.06 | 0.994 | 1.02 | 0.963 | 0.915 | 0.635 | 0.63 | 0.684 | 0.685 | 0.644 | 0.772 | 0.974 | 0.478 | 0.17 | 0.126 | 1.07 | 1.18 | 0.916 | 0.975 | 0.333
LOU-NH91 | 0.782 | 0.768 | 0.789 | 0.727 | 0.817 | 0.377 | 0.318 | 0.378 | 0.348 | 0.379 | 0.367 | 0.328 | 0.331 | 0.271 | 0.248 | 0.782 | 0.631 | 0.421 | 0.432 | 0.424
NCI-H460 | 0.152 | 0.203 | 0.11 | 0.0864 | 0.0963 | 0.0519 | 0.0632 | 0.0612 | 0.0661 | 0.0611 | 0.0313 | 0.0331 | 0.0317 | 0.0272 | 0.0222 | 0.712 | 0.465 | 0.148 | 0.0565 | 0.0732
NCI-H650 | 0.95 | 0.996 | 0.985 | 0.814 | 0.856 | 0.806 | 0.866 | 0.99 | 0.837 | 0.973 | 0.959 | 0.741 | 0.424 | 0.242 | 0.296 | 1.15 | 0.871 | 0.46 | 0.263 | 0.354
NCI-H1915 | 0.286 | 0.337 | 0.293 | 0.248 | 0.287 | 0.537 | 0.511 | 0.529 | 0.479 | 0.498 | 0.905 | 0.831 | 0.949 | 0.775 | 0.716 | 0.726 | 0.569 | 0.467 | 0.251 | 0.201
NCI-H1734 | 0.581 | 0.668 | 0.604 | 0.65 | 0.709 | 0.449 | 0.39 | 0.408 | 0.422 | 0.435 | 0.165 | 0.21 | 0.192 | 0.15 | 0.166 | 0.581 | 0.423 | 0.274 | 0.22 | 0.224
NCI-H1993 | 0.493 | 0.658 | 0.552 | 0.549 | 0.644 | 0.597 | 0.644 | 0.575 | 0.513 | 0.674 | 0.891 | 0.768 | 1.02 | 0.692 | 0.664 | 0.763 | 0.701 | 0.598 | 0.742 | 0.742
LK-2 | 0.854 | 0.727 | 0.666 | 0.452 | 0.567 | 0.281 | 0.259 | 0.253 | 0.199 | 0.302 | 0.216 | 0.147 | 0.169 | 0.202 | 0.244 | 0.525 | 0.583 | 0.156 | 0.113 | 0.284
NCI-H3122 | 0.19 | 0.248 | 0.201 | 0.219 | 0.184 | 0.21 | 0.184 | 0.202 | 0.203 | 0.215 | 0.0608 | 0.0978 | 0.0882 | 0.0945 | 0.0955 | 1.06 | 0.984 | 0.939 | 0.871 | 0.739
HOP-62 | 0.424 | 0.378 | 0.373 | 0.346 | 0.355 | 0.283 | 0.293 | 0.326 | 0.275 | 0.283 | 1.11 | 1.01 | 0.936 | 0.764 | 0.735 | 0.774 | 0.443 | 0.468 | 0.227 | 0.19
